{
  "source": "patent US20240165182A1",
  "about": "“METHOD OF EXTRACTION OF PROANTHOCYANIDINS COMPOUND FROM PINE BARK OF PINUS ROXBURGHII” (AMBE PHYTOEXTRACTS PVT. LTD., priority 2022, published 2024)",
  "key": {"[1]": {"tested_on": "Human keratinocytes (HaCaT)", "assay": "GSH modulation assay against hydrogen peroxide induced oxidative stress (GSH ELISA)", "assay_type": "cell-based", "settings": "H2O2 500 μm 3 hours, tested concentration 17.61 μg/ml (positive control)", "experimental": "For conducting the analysis, 10 mg of Pine bark extract from Pinus roxburghii (Pinorox®) was dissolved in a DMSO (Dimethyl sulfoxide) solution. The volume of the test solution was made up using DMEM-HG (Dulbecco's Modified eagle Medium) and supplemented with 2% inactivated FBS (Fetal bovine serum) to acquire a solution with concentration of 10 mg/ml. The test solution was further proceeded with sterilization using syringe filtration. For carrying out the cytotoxic analysis, a two-fold serial dilution was prepared. The cell line of Human keratinocytes (HaCaT) was obtained from Addex Bio, USA and were cultured in DMEM-HG supplemented media with 10% inactivated fetal bovine serum (FBS), penicillin (100 IU/mL), streptomycin ([…]) and amphotericin B (5 μg/mL) in a wet atmosphere of 5% CO2 at a temperature of 37° C. until confluent. […] The samples were analyzed to estimate the levels of GSH using Elab science GSH ELISA kit by following the manufacturer's instruction. […]"}, "[2]": {"assay": "Total antioxidant capacity (TAC) assay, sulphuric acid/sodium phosphate/ammonium molybdate reagent", "settings": "concentration 1000 μg/ml, 90 minutes at 95° C.", "experimental": "The assay was performed to evaluate the total antioxidant capacity of a Pinorox® i.e. Pine bark extract from Pinus roxburghii against the standard ascorbic acid for in-vitro study. Antioxidants are compounds that are capable of inhibiting the process of oxidation that occurs under the influence of atmospheric oxygen or reactive oxygen species. The antioxidants are employed for stabilizing polymeric products, petrochemicals, cosmetics and food stuff along with pharmaceuticals. Antioxidants are involved in defense mechanisms of an organism against the associated pathologies in order to attack the free radicals. The test is carried out to check the total antioxidant capacity of a pine bark extract in order to avoid nutritional loss. The total antioxidant capacity of Pinorox® i.e. Pine bark extract from Pinus roxburghii was found out to be 756.993±0.150 mM equivalent of the ascorbic acid having 1000±0.027 mM at 1000 μg/mL. Pine bark extract of 5.5 mg each/ascorbic acid were subjected to dissolve in 0.5 ml of DMSO (Dimethyl sulfoxide) in a separate container. 0.244 ml of 0.6 M sulphuric acid was added to a 15 ml of distilled water. […] The absorbance was recorded at […] via ELISA (enzyme-linked immunosorbent assay) reader and the values were recorded. The total activity of antioxidant was expressed as mM which is equivalent of ascorbic acid. […]"}},
  "data": [
    {"smiles": "O=C1O[C@H]([C@@H](O)CO)C(O)=C1O", "note": "[Ascorbic acid]", "values": [
      {"measurement": "% Increase in GSH level over hydrogen peroxide control", "setting": "[1]", "value": "95.59±0.03", "unit": "%"},
      {"measurement": "TAC (total antioxidant capacity)", "setting": "[2]", "value": "1000 ± 0.027 mM equivalent of ascorbic acid"},
      {"measurement": "TAC (total antioxidant capacity)", "setting": "[2]; listed as ascorbic acid", "value": "1000±0.027 mM equivalent of ascorbic acid"}
    ]}
  ]
}
